Laboratory results reported in article PMC10675777, “Experimental Evaluation of the Hypersensitivity Reactions of a New Glycopeptide Antibiotic Flavancin in Animal Models” (Pharmaceuticals, 2023).
Counter-ions that a name gives are not always drawn. Like-named read-outs stand apart in the source and are kept apart here.

Columns and labels:
[1] = rat, in vivo, iv, 6.25 mg/kg
Description: Experimental animals were divided into groups of six at each time point. Flavancin was administered intravenously into the tail vein at a single dose of 6.25 mg/kg (5 TD). Control rats were injected with glucose solution in the same volume. Blood was collected 5, 15, 30 min and 1 h after injection into heparinized plastic tubes. Blood samples were centrifuged for 20 min at 1500 rpm. The supernatant was poured into tubes and stored at −20 °C until chromatographic analysis. Quantitative determination of flavancin in blood samples was carried out by high-performance liquid chromatography method (HPLC) with fluorimetric detection.
The method is based on the chromatography of specially prepared samples using a high-performance liquid chromatograph with a fluorescence detector and a reversed-phase column.
Gradient separation was performed at 40 °C on a column Jupiter C18 (250 mm × 4.6 mm, particle size 5 microns; Security Guard Cartridge, Phenomenex, Torrance, CA, USA). […] Detection was carried out using a fluorescence detector (Waters 2475, Waters Associates, Framingham, MA, USA) (excitation—240 nm, emission—330 nm). […] The lower limit of the quantitative determination of flavancin was 0.8 µg/mL. […]
Eight hundred µL of supernatant was replaced in 1.5 mL Eppendorf plastic tubes. […] The supernatant was analyzed by HPLC. […]

guinea pigs [2] = details: Evans blue
Description: In the study of active skin anaphylaxis, the sensitizing doses of flavancin were administered following the same scheme as described previously. The resolving dose, which consisted of a 0.1% solution of the dosage form of the drug in a 5% glucose solution with a volume of 0.05 mL per guinea pig, was administered intradermally 21 days after the last day of sensitization into a previously […] area of the flank skin. After 30 min, both the experimental and control groups of animals were intracardially injected with 0.5 mL of 1% Evans blue solution. Thirty minutes later, the animals were euthanized using ether anesthesia. The skin where the drug was intradermally administrated was then separated, and the diameter of the blue spot was measured and recorded. The collected quantitative data were statistically analyzed using a significance level of p < 0.05.

histamine = experiment: Histamine in blood plasma after intravenous administration (Histamine-ELISA); details: for Histamine Level in plasma: female CBA mice, n = 10, single i.v., equitoxic doses (~MTD): vancomycin 300 mg/kg, flavancin 100 mg/kg, ELISA
Description: The amount of histamine in the blood plasma of mice was detected 0.5, 1.5 and 3 min after a single intravenous administration of drugs.
Female CBA mice weighing 18–20 g were divided into groups of 10 animals each. Flavancin was dissolved in 5% glucose and administrated via the tail vein to the mice at a dose equivalent to one TD (2.5 mg/kg) or MTD (100 mg/kg). […] Untreated animals were used as the control group.
The animals were euthanized after 0.5, 1 and 1.5 min in an experiment using equiterapeutic doses and 0.5, 1.5 and 3 min for an experiment with the use of equitoxic doses, and the blood samples were collected after the drug administration. Next, 500 µL of whole blood, which had been drawn into 10 µL of heparin (30–50 IU) was centrifuged for 20 min at 2000 rpm. To perform the histamine analyses, 20 µL of plasma was mixed with dilutions of saline at ratios of 1:10 and 1:20. The amount of histamine was determined using an automatic biochemical and enzyme immunoassay analyzer (ChemWell, Awareness Technology, Inc., Palm City, FL, USA). The histamine detection was performed using the Histamine-ELISA reagent kit (Tecan Group Company, Männedorf, Switzerland).

guinea pigs [3] = experiment: General anaphylaxis reaction (anaphylactic shock)
Description: In order to determine the anaphylactogenic properties of flavancin, we selected two technically simple and easily reproducible tests: general anaphylaxis reaction and active skin anaphylaxis.
Adult guinea pigs weighing 300–350 g were randomized into three groups (n = 10). […] These doses were determined based on the effectiveness in mice (ED100), with adjustments made using the coefficient of the animals’ body surface [28]. Saline was used as the control in the experiment. As for the reference agent, cattle serum was employed, with a dose of 0.1 mL for sensitizing doses and 0.5 mL for the resolving doses. The sensitizing doses were following a scheme: the first injection was given subcutaneously, while the subsequent two injections were administrated intramuscularly, with a 48 h interval between each injection. The resolving dose was administered intracardially 21 days after the last day of sensitization.

concanavalin A = details: for The Mass of the Hind Leg Foot, Con A, Me, Mean ± SD / The Mass of the Hind Leg Foot, Saline, Mc, Mean ± SD: female CBA mice, n = 10, weighed 1 h later; for The Mass of the Hind Leg Foot, Con A, Me, Mean ± SD: Con A 0.5% into pad 1 h post-injection; for The Mass of the Hind Leg Foot, Saline, Mc, Mean ± SD: saline into contralateral pad; for RI (reaction index to concanavalin A) / Relative Increase Me Over Mc: mice; for Relative Increase Me Over Mc: (Me − Mc)/Mc × 100%
Description: Its administration causes nonimmune activation of histamine release and inflammatory edema at the injection site.
The experiment was carried out in accordance with «Guidelines on the assessment of allergic properties of drugs» [30]. Healthy female CBA mice weighing 20–24 g were divided into five groups, in cages of 10. […] 10 mL/kg of 5% glucose solution was administered to the animals of control group. One hour post-injection, 0.5% Con A in isotonic sodium chloride solution (0.01 mL/10 g body mass) was injected into the pad of the hind legs and the same volume of isotonic solution of sodium chloride was injected into the contralateral extremity of mice in the experimental and control groups. One hour later, the mice were euthanized. The hind legs were amputated at the hock joint and weighed. Relative increase Me over Mc in each group was calculated using the formula (Me − Mc)/Mc × 100%, where Me is the mass of the foot injected with Con A and Mc is the mass of the foot injected with saline solution. The RI of the group of animals receiving the drug, exceeding 20%, is considered significant and indicates an inflammatory reaction to concanavalin A.

patients = patients treated with vancomycin; cited from earlier work
Description: This reaction is typically associated with intravenous administration of doses exceeding 1000 mg and administrated at a rate of less than 60 min [5]. […] More recently, the mechanism behind some IgE-independent reactions, previously referred to as pseudo ...

[4] = set-up: method as in PMID 1693055; details: cited from earlier work

CN[C@H](CC(C)C)C(=O)N[C@H]1C(=O)N[C@@H](CC(N)=O)C(=O)N[C@H]2C(=O)N[C@H]3C(=O)N[C@H](C(=O)N[C@H](C(=O)NCCNCc4ccccc4F)c4cc(O)cc(O)c4-c4cc3ccc4O)[C@H](O[C@H]3C[C@](C)(N)[C@@H](O)[C@H](C)O3)c3ccc(cc3)Oc3cc2cc(c3O[C@@H]2O[C@H](CO)[C@@H](O)[C@H](O)[C@H]2O[C@H]2C[C@](C)(N)[C@@H](O)[C@H](C)O2)Oc2ccc(cc2Cl)[C@H]1O [flavancin, N-(2((2-fluorobenzyl)amino)ethyl)amide of eremomycin hydrochloride]
level at 1 h [1]: 5000 ng/mL
Blue Spot Diameter (guinea pigs [2]; sensitizing 0.5 mg/kg x3, resolving 0.05 mL per pig of 0.1% solution 21 days after sensitization): 2.3 ± 0.6 cm
Blue Spot Diameter (guinea pigs [2]; sensitizing 1.5 mg/kg x3, resolving 0.05 mL per pig of 0.1% solution 21 days after sensitization): 2.4 ± 0.5 cm
Histamine Level in plasma (histamine; 0.5 min): 549.9 ± 92.6 µg/L
Histamine Level in plasma (histamine; 1.5 min): 796.2 ± 56.3 µg/L
Histamine Level in plasma (histamine; 3 min): 297.7 ± 54.9 µg/L
Histamine level in the blood compared to vancomycin (histamine; mice, equivalent (therapeutic) dose, after 30 s): three times lower
Effect (general anaphylaxis reaction, anaphylactic shock) (guinea pigs [3]; n = 10, sensitized with saline solution 1.0 mL x3, resolving flavancin 3.0 mg/kg intracardially): no
Effect (general anaphylaxis reaction, anaphylactic shock) (guinea pigs [3]; n = 10, sensitizing 0.5 mg/kg (1TD) subcutaneous then twice intramuscularly, 48 h interval, resolving 3.0 mg/kg (6TD) intracardially 21 days after sensitization): does not induce anaphylactic shock and no
Effect (general anaphylaxis reaction, anaphylactic shock) (guinea pigs [3]; n = 10, sensitizing 1.5 mg/kg (3TD) subcutaneous then twice intramuscularly, 48 h interval, resolving 3.0 mg/kg (6TD) intracardially 21 days after sensitization): does not induce anaphylactic shock and no
The Mass of the Hind Leg Foot, Con A, Me, Mean ± SD (concanavalin A; drug i.v. at MTD): 151.5 ± 3.0 mg
The Mass of the Hind Leg Foot, Saline, Mc, Mean ± SD (concanavalin A; drug i.v. at MTD): 139.3 ± 2.9 mg
The Mass of the Hind Leg Foot, Con A, Me, Mean ± SD (concanavalin A; drug i.v. at TD): 154.3 ± 2.1 mg
The Mass of the Hind Leg Foot, Saline, Mc, Mean ± SD (concanavalin A; drug i.v. at TD): 142.1 ± 2.0 mg
RI (reaction index to concanavalin A) (concanavalin A; both doses studied (TD and MTD), below 20% means no pseudoallergic reaction): less than 20%
Relative Increase Me Over Mc (concanavalin A; drug i.v. at MTD): 8.8%
RI (reaction index to concanavalin A) (concanavalin A; drug i.v. at MTD, RI exceeding 20% is significant): 7.3%
Relative Increase Me Over Mc (concanavalin A; drug i.v. at TD): 8.5%
RI (reaction index to concanavalin A) (concanavalin A; drug i.v. at TD, RI exceeding 20% is significant): 3.7%

vancomycin [reference compound]
Occurrence of Red Man Syndrome (non-IgE-mediated hypersensitivity) (patients): 4–47%
Vancomycin concentration in the blood after infusion ([4]; 60-min intravenous infusion at a therapeutic dose, before the decrease): 51.1 ± 9.2
Vancomycin concentration in the blood 1 h after infusion ([4]; 1 h after a 60-min intravenous infusion at a therapeutic dose): 24.9 ± 2.9
The Mass of the Hind Leg Foot, Con A, Me, Mean ± SD (concanavalin A; drug i.v. at MTD): 149.4 ± 3.0 mg
The Mass of the Hind Leg Foot, Saline, Mc, Mean ± SD (concanavalin A; drug i.v. at MTD): 131.8 ± 3.6 mg
The Mass of the Hind Leg Foot, Con A, Me, Mean ± SD (concanavalin A; drug i.v. at TD): 158.1 ± 3.8 mg
The Mass of the Hind Leg Foot, Saline, Mc, Mean ± SD (concanavalin A; drug i.v. at TD): 140.4 ± 2.3 mg
